Test: acute toxic test using a mouse, oral administration
Format: in vivo
Conditions: oral administration at 5 g/kg
Text: The theanine used in the present invention has high safety. […] Also, especially L-theanine is known as a main component of umami (tastiness) of the green tea, and is also used as a food additive giving umami, without the limitation of its added amount under the regulation for food hygiene. Moreover, contrary to the conventional drugs, since there is no adverse action by theanine at all, the mind-concentration is safely and effectively achieved according to the composition of the present invention, whereby working efficiency, learning efficiency or the like, or sports performance can be improved.

CCNC(=O)CC[C@H](N)C(=O)O [theanine, γ-glutamyl ethylamide]
abnormalities in the general states, weight and the like: no abnormalities
cases of death in acute toxic test: no cases of death

Reference: patent US9724318B2, “Compositions for improving mental concentration” (priority 2001, dated 2017)
